The assay has as its system Normal human fibroblasts. Here is the method:
Normal human fibroblasts were trypsinised and seeded in 12 well plates at a density of […]. When confluent, the cells were transferred to a culture medium with an amino acid distribution and concentrations designed to mimic those in human serum as closely as possible. The cell cultures were divided into two categories, a control culture in which the culture medium contained 0.201 mM proline and an experimental sample in which the culture medium contained 0.592 mM proline. After 24 hours fibroblast-conditioned medium containing 100 microgram/ml beta-aminoproprionitrile to prevent cross-linking of collagen molecules in the cultures was collected. The conditioned medium was dotblotted to a nitrocellulose membrane and probed for collagen type I content with a polyclonal immune-absorbed antibody. The value shown for the proline-supplemented samples is relative to the controls set at 100%.

For `O=C(O)[C@@H]1CCCN1` [Proline, proline], the “% of control value (collagen type I content)” value (0.502 mM proline in culture medium vs control medium with 0.201 mM proline set at 100%, conditioned medium collected after 24 hours) is reported as 150% ± 21.9%. Moreover, the “increase in collagen synthesis” value (human fibroblasts, proline-supplemented medium vs control) turned out to be 50%.

(Values after patent publication US20140357553A1, “NUTRITIONAL COMPOSITION FOR WOUND HEALING” (Nestec S.A., priority 2003, published 2014).)
